Source: US20240287172A1, “PROTEIN BINDERS TO IRHOM2 EPITOPES” (SCIRHOM GMBH, priority 2019, published 2024)

System: PMA-induced release of endogenous HB-EGF from PBMCs from healthy donors
Assay: ELISA-based HB-EGF release assay, PMA-induced, PBMCs from healthy donors
Format: cell-based
Conditions: Homo sapiens, PBMC; PMA 25 ng/ml, 6 hours; recombinant murine antibodies and IgG at 1 μg/ml; Batimastat at 10 μM
Procedure: In brief, on day 1, Nunc black MaxiSorp® 96-well plates (Thermo Fisher Scientific, USA) were coated overnight with 100 μl per well of mouse anti-human HB-EGF capture antibody (provided as part of the DuoSet ELISA kit) at 4 μg/ml TBS at 4° C. On day 2, the capture antibody solution was removed and MaxiSorp® plates were blocked with 300 μl per well of TBS, 1% BSA at room temperature for 3 hours. Meanwhile, 80,000 PBMC from healthy donors (STEMCELL Technologies, Canada) cells in 80 μl of normal growth medium were seeded in each well of Greiner CELLSTAR V-bottom 96-well plates (Thermo Fisher Scientific, USA) and pre-incubated with 20 μl per well of standard growth medium supplemented with Batimastat (BB94, Abcam, UK) at 50 μM as positive control (for a final concentration of 10 μM in the resulting 100 μl sample volume), mouse IgG antibody (Thermo Fisher Scientific, USA) at 5 μg/ml as isotype control (for a final concentration of 1 μg/ml in the resulting 100 μl sample volume) or antibodies of the invention at 5 μg/ml (for a final concentration of 1 μg/ml in the resulting 100 μl sample volume) at 37° C., 5% CO2 for 30 minutes. […] Using an infinite M1000 (Tecan Group, Switzerland) microplate reader, the fluorescence of each well was collected at an excitation wavelength of 435 nm and an emission wavelength of 555 nm.

SMILES: CNC(=O)[C@H](Cc1ccccc1)NC(=O)[C@H](CC(C)C)[C@H](CSc1cccs1)C(=O)NO [Batimastat]
- inhibition at 10 µM: 94.9%
